Among the data in patent US5389616A, “Amino acid derivatives” (Hoffman-LaRoche Inc., priority 1988, dated 1995) are IC50 values, retold here.

pIC50: −log10 of the molar value.

In the test the target is T1, human renin (Homo sapiens, UniProt P00797).
T1 sequence (P00797 67-406): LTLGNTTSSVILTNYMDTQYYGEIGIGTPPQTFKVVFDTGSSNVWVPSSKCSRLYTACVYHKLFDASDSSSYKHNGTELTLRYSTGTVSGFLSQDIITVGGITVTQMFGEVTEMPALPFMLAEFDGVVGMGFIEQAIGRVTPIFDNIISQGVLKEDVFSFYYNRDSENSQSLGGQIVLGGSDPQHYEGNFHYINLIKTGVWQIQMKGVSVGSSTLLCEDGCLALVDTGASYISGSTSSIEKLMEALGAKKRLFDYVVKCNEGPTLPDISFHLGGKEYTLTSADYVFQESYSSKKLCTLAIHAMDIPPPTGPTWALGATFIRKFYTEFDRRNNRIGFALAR
The experiment in a line: In vitro test with pure human renin. The class given is biochemical. The following applies: human tetradecapeptide renin substrate (hTD), pH 7.4, incubated 3 hours at 37° C. or 4° C., angiotensin I production measured via RIA. On the procedure: In vitro test with pure human renin
The test is carried out in Eppendorf test tubes. The incubation mixture consists of (1) 100μl of human renin in buffer A (0.1M sodium phosphate solution, pH 7.4, containing 0.1% bovine serum albumin, 0.1% sodium azide and 1 mM ethylenediaminetetraacetic acid), sufficient for a renin activity of 2--3 ng of angiotensin I/ml/hr.; (2) 145 μl of buffer A; (3) 30 μl of 10 μM human tetradecapeptide renin substrate (hTD) in 10 mM hydrochloric acid; (4) 15 μl of dimethyl sulphoxide with or without inhibitor and (5) 10 μl of a 0.03 molar solution of hydroxyquinoline sulphate in water.
The samples are incubated for 3 hours at 37° C. or 4° C. in triplicate. 2 ×100 μl samples per experimental test tube are used in order to measure the production of angiotensin I via RIA (standard radioimmunoassay; clinical assay solid phase kit). Cross reactivities of the antibody used in the RIA are: angiotensin I 100%; angiotensin II 0.0013%; hTD (angiotensin I-Val-Ile-His-Ser-OH) 0.09%. The production of angiotensin I is determined by the difference between the experiment at 37° C. and that at 4° C.
The following controls are carried out:
(a) Incubation of hTD samples without renin and without inhibitor at 37° C. and 4° C. The difference between these two values gives the base value of angiotensin I production.
(b) Incubation of hTD samples with renin, but without inhibitor at 37° C. and 4° C. The difference between these values gives the maximal-value of angiotensin I production.
In each sample the base value of the angiotensin I production is subtracted from the angiotensin I production which is determined. The difference between the maximal value and the base value gives the value of the maximal substrate hydrolysis (=100%) by renin.
The results are given as IC50 values which denote that concentration of the inhibitor at which the enzymatic activity is inhibited by 50%. The IC50 values are determined from a linear regression curve from a logit-log plot.
As for `CCC(CC)C(O)[C@H](O)[C@H](CC1CCCCC1)NC(=O)[C@H](Cc1c[nH]cn1)NC(=O)[C@@H](CC(=O)C(C)(C)C)Cc1ccccc1` (mixture of isomers) [A, (S)-N-[(1S,2R,3RS)-1-(Cyclohexylmethyl)-4-ethyl-2,3-dihydroxyhexyl]-α-[(R)-α-(3,3-dimethyl-2-oxobutyl)hydrocinnamamido]imidazole-4-propionamide], the pIC50 (as a rule, the negative decadic logarithm of the IC50, by convention in mol/L) was 7.62.

In turn, `CC(C)(C)C(O)[C@H](O)[C@H](CC1CCCCC1)NC(=O)[C@H](Cc1c[nH]cn1)NC(=O)[C@H](Cc1ccccc1)CS(=O)(=O)C(C)(C)C` (mixture of isomers) [F, (S)-α-[(S)-α-[(t-butylsulphonyl)methyl]hydrocinnamamido]-N-[(1S,2R,3RS)-1-(cyclohexylmethyl)-2,3-dihydroxy-4,4-dimethylpentyl]imidazole-4-propionamide] gave a pIC50 of 7.42.

Turning to `CC(C)(C)C(=O)C[C@@H](Cc1ccccc1)C(=O)N[C@@H](Cc1c[nH]cn1)C(=O)N[C@@H](CC1CCCCC1)[C@@H](O)[C@@H](O)C1CCCCC1` [B, (S)-N-[(1S,2R,3S)-3-cyclohexyl-1-(cyclohexylmethyl)-2,3-dihydroxypropyl]-α-[(R)-α-(3,3-dimethyl-2-oxobutyl)-hydrocinnamamido]imidazole-4-propionamide], the pIC50 is 9.00.

`CC(C)[C@H](O)[C@H](O)[C@H](CC1CCCCC1)NC(=O)[C@H](Cc1c[nH]cn1)NC(=O)[C@@H](CC(=O)C(C)(C)C)Cc1ccccc1` [C, (S)-N-[(1S,2R,3S)-1-(cyclohexylmethyl)-2,3-dihydroxy-4-methylpentyl]-α-[(R)-α-(3,3-dimethyl-2-oxobutyl)hydrocinnamamido]imidazole-4-propionamide] had a pIC50 of 8.52.

The compound `CC(C)(C)S(=O)(=O)C[C@@H](Cc1ccccc1)C(=O)N[C@@H](Cc1c[nH]cn1)C(=O)N[C@@H](CC1CCCCC1)[C@@H](O)[C@@H](O)c1ccccc1` [D, (S)-α-[(S)-α-[(t-butylsulphonyl)methyl]hydrocinnamamido]-N-[(1S,2R,3S)-1-(cyclohexylmethyl)-2,3-dihydroxy-3-phenylpropyl]imidazole-4-propionamide] gave a negative logarithm of the IC50 (pIC50) of 8.15.

For the compound `CC(C)(C)S(=O)(=O)C[C@@H](Cc1ccccc1)C(=O)N[C@@H](Cc1c[nH]cn1)C(=O)N[C@@H](CC1CCCCC1)[C@@H](O)[C@H](O)c1ccccc1` [E, (S)-α-[(S)-α-[(t-butylsulphonyl)methyl]hydrocinnamamido]-N-[(1S,2R,3R)-1-(cyclohexylmethyl)-2,3-dihydroxy-3-phenylpropyl]imidazole-4-propionamide], the pIC50 is 6.77.

Take `CC(C)[C@H](O)[C@H](O)[C@H](CC1CCCCC1)NC(=O)[C@H](Cc1c[nH]cn1)NC(=O)[C@H](Cc1ccccc1)CS(=O)(=O)C(C)(C)C` [G, (S)-α-[(S)-α-[(t-butylsulphonyl)methyl]hydrocinnamamido]-N-[(1S,2R,3S)-1-(cyclohexylmethyl)-2,3-dihydroxy-4-methylpentyl]imidazole-4-propionamide]: the pIC50 was 8.70.

Regarding `CC(C)(C)S(=O)(=O)C[C@@H](Cc1ccccc1)C(=O)N[C@@H](Cc1c[nH]cn1)C(=O)N[C@@H](CC1CCCCC1)[C@@H](O)[C@@H](O)C1CCCCC1` [H, (S)-α-[(S)-α-[(t-butylsulphonyl)methyl]hydrocinnamamido]-N-[(1S,2R,3S)-3-cyclohexyl-1-(cyclohexylmethyl)-2,3-dihydroxypropyl]imidazole-4-propionamide], the pIC50 was 8.70.
